Results as given in article PMC9913752, “Proof-of-Concept Study of an Alpha-Fetoprotein-Derived Peptide for the Management of Canine Mammary Cancer” (Animals : an Open Access Journal from MDPI, 2023).
Like-named read-outs stand apart in the source and are kept apart here. Where a SMILES comes first, the peptide text is derived from it. [ ]: non-standard residue; d: D form. Hyp = O=C(O)[C@@H]1C[C@@H](O)CN1

How the values were obtained:
[1] = Clinical parameters in unanesthetized dogs; assay type: in vivo, dog
[2] = system: MNU-induced mammary tumors; conditions: cited from earlier work
Description: (§1) Table 1 The therapeutic and preventive efficacy of AFPep * in rodent models of mammary cancer. | column: MNU-Induced Mammary Tumors in Sprague Dawley Rats ^2 || As models for preventive interventions, two widely used mammary cancer induction models in rats were studied to assess the cancer prevention capabilities of AFPep.

in vivo = assay: in vivo; parameters: species or system Macaca mulatta; conditions: monkey
Description: (§2) AFPep (4 mg/kg) was administered by parenteral (i.v., s.c.) as well as oral routes to normal adult mice, dogs, and monkeys. Blood samples were obtained from anesthetized mice via the retroorbital plexus. Blood samples from dogs and monkeys were obtained through an indwelling catheter in the cephalic vein by the veterinarian staff at Albany Medical College. Dogs were awake and alert during sampling; monkeys were under anesthesia, as previously described. For the oral route, gavage was used in mice and monkeys; enteric capsules ([…]) containing AFPep were used and were readily swallowed by dogs. AFPep blood levels were measured using lliquid chromatography and mass spectrometry, as previously described.

[3] = system: ER-positive primary canine mammary cancer cells; conditions: cited from earlier work
Description: It is important to note that during the development of AFPep, head-to-tail cyclization was carried out to increase stability as well as oral bioavailability. Other investigators have shown that the cyclization of peptides increases bioavailability.

Pharmacokinetics in mice = assay type: in vivo; conditions: mouse; for Cmax / AUC: plasma LC/MS/MS; for half-life: in vivo
Description: as §2

[4] = 8-day repeat-dose study, AFPep blood levels in tumor-bearing dogs; assay type: in vivo, dog; conditions: for level at 0.5 h: female, dog, blood, sc, 10 mg
Description: Previous studies utilizing repeat dosing in mice and rats established safe starting doses for studies using dogs. Female dogs with one or more spontaneously occurring mammary gland tumors greater than approximately 2 cm in maximum diameter, presenting to the Cancer Institute at the Schwarzman Animal Medical Center in New York City, were screened for inclusion in the study. […] All dogs underwent complete clinical staging, consisting of a complete blood count with cell differential, clinical chemistry, and urinalysis. Dogs were administered AFPep 10 mg s.c. once daily for 8 consecutive days. Tumors were biopsied prior to the administration of AFPep and were surgically removed on day 8 after the last injection of AFPep. Blood levels of AFPep were measured before and 30 minutes following its administration on the first day and eighth day of treatment with AFPep. Histopathology was obtained on all mammary gland tumors. Tolerability was assessed using the Veterinary Cooperative Oncology Group Common Terminology Criteria for Adverse Events. Blood chemistry and hematology analyses were performed at IDEXX Laboratories Inc. (Westbrook, ME, USA), using the Sysmex XT and Beckman AU 5800 systems. This study was approved by the Schwarzman Animal Medical Center IACUC and informed consent was obtained in writing from all owners.

[5] = system: Estrogen-induced mammary tumors; conditions: cited from earlier work
Description: as §1, with “Estrogen-Induced” for “MNU-Induced”, “ACI” for “Sprague Dawley”, “^3” for “^2”

[6] = system: MCF-7 human breast cancer xenografts; conditions: cited from earlier work
Description: Table 1 The therapeutic and preventive efficacy of AFPep * in rodent models of mammary cancer. | column: MCF-7 Human Breast Cancer Growth in SCID Mice ^1 || The efficacy of AFPep in various models of mammary cancer has been shown in multiple reports. […] A 4 mg/kg dose was assessed parenterally, and the dosage was escalated to 100 mg/kg, administered orally.

[7] = unanesthetized dogs, 30 min Post AFPep, mean ± SE from 6 dogs

CC(C)[C@@H]1NC(=O)[C@@H]2C[C@@H](O)CN2C(=O)[C@H]([C@@H](C)O)NC(=O)[C@H](CCCCN)NC(=O)[C@H](CCC(=O)O)NC(=O)[C@H](CC(N)=O)NC(=O)CNC(=O)[C@@H]2C[C@@H](O)CN2C(=O)[C@H](CC(N)=O)NC1=O [AFPep] (cyclo(EKT[Hyp]VN[Hyp]GN))
other clinical indicators (mobility, playfulness, appetite, stool consistency, heart rate, respiration rate, capillary refill time, body temperature) ([1]; dogs): remained normal
reflux or vomiting after administration ([1]; dogs): no evidence of reflux or vomiting
Capillary refill time ([1]; unanesthetized dogs, 30 min Post AFPep, 6 dogs): <2 s
Body temperature ([1]; unanesthetized dogs, 30 min Post AFPep, mean from 6 dogs): 39.0 °C
Heart Rate [1, 7]: 112 ± 5
Respiration Rate [1, 7]: 28 ± 4
MNU-Induced Mammary Tumors in Sprague Dawley Rats, % of Rats with Tumors ([2]; MNU 50 mg/kg, AFPep 4 mg/kg s.c. once daily for 23 days from 10 days after MNU, p < 0.05): 40 * %
latency period of cancer appearance ([2]; chemically induced model): prolonged
AUC (in vivo; iv, 4 mg/kg): 26200 ng·h/mL
Cmax (in vivo; iv, 4 mg/kg): 13000 ng/mL
half-life (in vivo; iv, 4 mg/kg): 107 min
half-life (in vivo; po): 810 min
AUC (in vivo; sc, 4 mg/kg): 23400 ng·h/mL
Cmax (in vivo; sc, 4 mg/kg): 8200 ng/mL
half-life (in vivo; sc, 4 mg/kg): 27 min
activity against ER-positive primary canine mammary cancer cells growing in culture [3]: effective
Cmax (Pharmacokinetics in mice; iv, 4 mg/kg (100 µg/mouse), non-linear regression, first-order PK model): 12000 ng/mL
AUC (Pharmacokinetics in mice; iv, 4 mg/kg): 4200 ng·h/mL
half-life (Pharmacokinetics in mice; iv, 4 mg/kg): 11 min
half-life (Pharmacokinetics in mice; po): 6.3 min
half-life (Pharmacokinetics in mice; sc, 4 mg/kg): 11 min
AUC (Pharmacokinetics in mice; po, p.o. gavage, 4 mg/kg per footnote (100 mg/kg orally)): 80 ng·h/mL
Cmax (Pharmacokinetics in mice; po, p.o. gavage, 4 mg/kg per footnote (escalated to 100 mg/kg orally)): 140 ng/mL
AUC (Pharmacokinetics in mice; sc, 4 mg/kg): 3450 ng·h/mL
Cmax (Pharmacokinetics in mice; sc, 4 mg/kg): 6400 ng/mL
AFPep blood level, Day 8 Pre-Treatment ([4]; Chihuahua, 7.53 kg, 10 mg s.c. once daily for 8 days, single animal): 0 ng/mL
AFPep blood level, Day 8 Pre-Treatment ([4]; Pitbull, 30.2 kg, 10 mg s.c. once daily for 8 days, single animal): 0 ng/mL
AFPep blood level, Day 8 Pre-Treatment ([4]; Pomeranian, 7.98 kg, 10 mg s.c. once daily for 8 days, single animal): 0 ng/mL
AFPep blood level, Day 8 Pre-Treatment ([4]; Shih tzu, 11.02 kg, 10 mg s.c. once daily for 8 days, single animal): 0 ng/mL
AFPep blood level, Day 8 Pre-Treatment ([4]; Yorkshire terrier, 5.86 kg, 10 mg s.c. once daily for 8 days, single animal): 0 ng/mL
level at 0.5 h ([4]; Pomeranian, Pomeranian, 7.98 kg, 30 min after 10 mg s.c., single animal, read-out: AFPep blood level, Day 1 Post-Treatment): 2400 ng/mL
level at 0.5 h ([4]; Pomeranian, Pomeranian, 7.98 kg, 30 min after dose, 10 mg s.c. once daily for 8 days, single animal, read-out: AFPep blood level, Day 8 Post-Treatment): 2100 ng/mL
level at 0.5 h ([4]; Poodle mix, Poodle mix, 5.80 kg, 30 min after 10 mg s.c., single animal, read-out: AFPep blood level, Day 1 Post-Treatment): 4400 ng/mL
level at 0.5 h ([4]; Poodle mix, Poodle mix, 5.80 kg, 30 min after dose, 10 mg s.c. once daily for 8 days, single animal, read-out: AFPep blood level, Day 8 Post-Treatment): 5000 ng/mL
level at 0.5 h ([4]; Yorkshire terrier, Yorkshire terrier, 5.86 kg, 30 min after 10 mg s.c., single animal, read-out: AFPep blood level, Day 1 Post-Treatment): 2200 ng/mL
level at 0.5 h ([4]; Yorkshire terrier, Yorkshire terrier, 5.86 kg, 30 min after dose, 10 mg s.c. once daily for 8 days, single animal, read-out: AFPep blood level, Day 8 Post-Treatment): 1900 ng/mL
level at 0.5 h ([4]; diverse breeds, Mean ± S.D. of 6 tumor-bearing dogs, 30 min after 10 mg s.c., first day, read-out: AFPep blood level, Day 1 Post-Treatment): 3600 ± 1200 ng/mL
level at 0.5 h ([4]; diverse breeds, Mean ± S.D. of 6 tumor-bearing dogs, 30 min after the day-8 dose, 10 mg s.c. once daily for 8 days, read-out: AFPep blood level, Day 8 Post-Treatment): 2500 ± 600 ng/mL
level at 0.5 h ([4]; summary of Table 6, 30 minutes post-AFPep, 10 mg s.c. once a day for 8 days, 6 tumor-bearing dogs, read-out: AFPep blood levels): 2000 to 3000 ng/mL
Estrogen-Induced Mammary Tumors in ACI Rats, % of Rats with Tumors ([5]; estradiol Silastic implant, AFPep s.c. once daily, p < 0.05): 48 * %
latency period of cancer appearance ([5]; hormone-induced model): prolonged
MCF-7 Human Breast Cancer Growth in SCID Mice (tumor volume) ([6]; AFPep 100 μg/mouse (4 mg/kg) oral gavage once daily for 14 days, established xenografts, p < 0.05 vs saline): 30 mm³
blood levels of AFPep needed for anti-breast cancer activity [6]: 10^−7 M
minimum blood level (Cmax) needed for stoppage of xenograft growth ([6]; dose-response studies, human breast cancer xenografts in immune-deficient mice): 0.1 µg/mL
minimum AUC needed for stoppage of xenograft growth ([6]; dose-response studies, xenografts in mice): 6.5 µg·min/mL
tumor outgrowth when dosing begun immediately following tumor implantation ([6]; once daily, 30-day observation period): completely prevented
growth of established MCF-7 xenografts ([6]; once-daily oral 4 mg/kg over a 14-day period, immunodeficient mice): almost completely stopped in their growth
